According to patent US12611406B2, “Oxopiperazine derivatives for the treatment of cancer” (Inthera Bioscience AG, priority 2020, dated 2026):
Like-named read-outs stand apart in the source and are kept apart here.

Key:
PC cells = assay: Anti-proliferative assay, five day treatment, CellTiter-Glo; type: cell-based; details: growth inhibition
Text: The amount of cells remaining at the end of the treatment was estimated by CellTiter-Glo (Promega).
Many of the cell lines in this subset had deficiencies in the Rb1 and p53 tumor suppressor pathways.

LNCaP cells = assay: Cell cycle distribution with siRNA-mediated knock-down of Rb and p53; type: cell-based; details: LNCaP treated with Rb/p53 siRNA, 24 h
Experimental: Top panel: Cell cycle distribution in LNCap cells treated with siRNA (2 bars on the right) in comparison to control LNCaP cells without siRNA treatment (2 bars in the middle), in the absence (−) or presence (+) of Compound 1 for 24 h at the indicated concentration. For comparison, DU-145 cells harboring a combined Rb1 and p53 loss-of-function are included (2 bars on the left). Lower panel: Western blot analysis according to the same experimental conditions as given for the top panel.
In in vitro studies using LNCaP PC cells, harboring wild-type Rb and p53 genes, the effect of Compound 1 on the cell cycle was investigated in the absence and presence of siRNA-mediated knock-down of Rb and p53 gene expression. […] This effect is hypothesized to be due to Compound 1-mediated perturbation of the interaction between p300 and DDR factors and subsequent impact on the late cell cycle checkpoints and the DDR leading to cell death.

DU-145 = DU-145 CDX mouse model; type: in vivo; details: once weekly 60 mg/kg/day as 30 mg/kg BID, 4 weeks; p <0.001
Text: Values larger than 100% indicate tumor regression.

[1] = Single dose oral and intravenous PK in CD-1 mice (mesylate salt), blood; type: in vivo; design: AUC(0-t) / AUC(0-inf): unit not given here; details: male, CD-1, mouse, whole blood
Experimental: These studies analyzed the PK profile of Compound 1 following a single oral gavage or single intravenous dose to CD-1 mice.
Compound 1 (mesylate salt) was administered to four groups of male mice (n=4/group) as a single oral (po) gavage administration at dose levels of 5, 10, 20, and 50 mg/kg/adm or as single intravenous (IV) dose at 5 and 50 mg/kg/adm. The vehicle was 1% methylcellulose with 0.1% Tween-80 in study AMP800 and 5% dextrose in water in study AMP799. Blood samples were collected at pre-dose, 10 minutes, 40 minutes, 2, 4, and 7 hours after administration for analysis of Compound 1 concentrations in blood by liquid chromatography—tandem mass spectroscopy (LC-MS/MS) and subsequent calculation of PK parameters.

[2] = 28-day once weekly oral repeated-dose DRF study in CD-1 mice (mesylate salt), plasma; type: in vivo; details: male; for Tmax / Cmax / AUC(0-t) / half-life: CD-1, mouse, plasma, po; for AUC(0-t): read-out: AUC0-8h
Experimental: This study explored the PK of Compound 1 after once weekly oral administration of 300 and 600 mg/kg/week for 4 consecutive weeks to male CD-1 mice.
Compound 1 (mesylate salt) was administered in 4 weekly doses by oral gavage to groups of male CD-1 mice (n=3/group) at dose levels of 300 and 600 mg/kg bodyweight per week. A suspension of 0.5% methylcellulose (w/v) in sterile water served as vehicle. Blood samples for PK analysis were collected after the second (Day 8) and fourth (Day 22) dosing at pre-dose, 0.25, 0.5, 1, 2, 4, 8, and 24 hours (the latter time point only after the 2nd dose) after administration.
Total plasma concentrations of Compound 1 were analyzed using a qualified LC-MS/MS method.

[3] = Plasma protein binding, equilibrium dialysis; type: in vitro ADME; details: 37° C, buffer pH 7.4, read-out: Fraction unbound (Fu), Mean
Experimental: Protein binding of Compound 1 to the plasma from several species, i.e., human, cynomolgus monkey, dog, rat, and mouse was investigated in vitro by incubation in plasma and determination of unbound fraction of Compound 1 using equilibrium dialysis. Compound 1 was incubated in 100% species-specific plasma and added to one side of the membrane in an equilibrium dialysis system while buffer (pH 7.4) is added to the other side. The system was allowed to reach equilibrium at 37° C. Compound concentration on both sides of the membrane is measured by liquid chromatography—tandem mass spectroscopy (LC-MS/MS).

[4] = 300 mg/kg, 300 mg/kg/week, 2nd dose (Week 2)
[5] = 300 mg/kg, 300 mg/kg/week, 4th dose (Week 4)
[6] = 600 mg/kg, 600 mg/kg/week, 2nd dose (Week 2)
[7] = 600 mg/kg, 600 mg/kg/week, 4th dose (Week 4)

CC(C)C[C@@H]1NCCN([C@@H](CC(C)C)C(=O)N2CCC3(C[C@@H]2C)OCC(CN2CCCC2)CO3)C1=O (stereo partly drawn) [Compound 1, (S)-3-isobutyl-1-((S)-4-methyl-1-((S)-8-methyl-3-(pyrrolidin-1-ylmethyl)-1,5-dioxa-9-azaspiro[5.5]undecan-9-yl)-1-oxopentan-2-yl)piperazin-2-one]
IC50 values (PC cells): nanomolar range | cell cycle response (LNCaP cells): increase of cells in the S-phase | Tumor growth inhibition (DU-145): 72 (<0.001)/**4 weeks % | AUC(0-inf) ([1]; intravenous 5 mg/kg): 1.11 | AUC(0-t) ([1]; intravenous 5 mg/kg): 1.03 | Tmax ([1]; intravenous 5 mg/kg): 0.17 h | half-life ([1]; intravenous 5 mg/kg): 2.3 h | AUC(0-inf) ([1]; intravenous 50 mg/kg): 13 | AUC(0-t) ([1]; intravenous 50 mg/kg): 12.2 | Tmax ([1]; intravenous 50 mg/kg): 0.17 h | half-life ([1]; intravenous 50 mg/kg): 1.6 h | AUC(0-inf) ([1]; oral 5 mg/kg): 0.246 | AUC(0-t) ([1]; oral 5 mg/kg): 0.179 | Tmax ([1]; oral 5 mg/kg): 0.17 h | half-life ([1]; oral 5 mg/kg): 4 h | AUC(0-inf) ([1]; oral 10 mg/kg): 0.471 | AUC(0-t) ([1]; oral 10 mg/kg): 0.31 | Tmax ([1]; oral 10 mg/kg): 0.17 h | half-life ([1]; oral 10 mg/kg): 5.6 h | AUC(0-inf) ([1]; oral 20 mg/kg): 2.49 | AUC(0-t) ([1]; oral 20 mg/kg): 1.97 | Tmax ([1]; oral 20 mg/kg): 0.17 h | half-life ([1]; oral 20 mg/kg): 3.2 h | AUC(0-inf) ([1]; oral 50 mg/kg): 3.38 | AUC(0-t) ([1]; oral 50 mg/kg): 2.88 | Tmax ([1]; oral 50 mg/kg): 0.67 h | half-life ([1]; oral 50 mg/kg): 2.6 h | Tmax ([2]; 300 mg/kg, 300 mg/kg/week, 2nd dose): 1 h | Cmax [2, 4]: 8130 ng/mL | AUC(0-t) [2, 4]: 13600 ng·h/mL | Tmax ([2]; 300 mg/kg, 300 mg/kg/week, 4th dose): 1.3 h | Cmax [2, 5]: 8370 ng/mL | AUC(0-t) [2, 5]: 38200 ng·h/mL | Tmax ([2]; 600 mg/kg, 600 mg/kg/week, 2nd dose): 5.7 h | Cmax [2, 6]: 13400 ng/mL | AUC(0-t) [2, 6]: 47800 ng·h/mL | Tmax ([2]; 600 mg/kg, 600 mg/kg/week, 4th dose): 0.5 h | Cmax [2, 7]: 28800 ng/mL | AUC(0-t) [2, 7]: 125000 ng·h/mL | half-life ([2]; 300 mg/kg/week, 2nd dose): 4.1 h | half-life ([2]; 600 mg/kg/week, 4th dose): 85.8 h | tolerability ([2]; once weekly orally for 4 weeks at 300 and 600 mg/kg/week): well tolerated | fraction unbound ([3]; dog plasma): 0.619 | fraction unbound ([3]; human plasma): 0.547 | fraction unbound ([3]; mouse plasma): 0.574 | fraction unbound ([3]; rat plasma): 0.528
